Source: patent US20210139454A1, “FORMAMIDE COMPOUND, PREPARATION METHOD THEREFOR AND APPLICATION THEREOF” (SHENZHEN CHIPSCREEN BIOSCIENCES CO., LTD., priority 2018, published 2021)

Target: T1, recombinant human ASK1 (Homo sapiens, UniProt Q99683)
T1 construct: purchased Invitrogen PR7349B
T1 sequence (Q99683 1-1374): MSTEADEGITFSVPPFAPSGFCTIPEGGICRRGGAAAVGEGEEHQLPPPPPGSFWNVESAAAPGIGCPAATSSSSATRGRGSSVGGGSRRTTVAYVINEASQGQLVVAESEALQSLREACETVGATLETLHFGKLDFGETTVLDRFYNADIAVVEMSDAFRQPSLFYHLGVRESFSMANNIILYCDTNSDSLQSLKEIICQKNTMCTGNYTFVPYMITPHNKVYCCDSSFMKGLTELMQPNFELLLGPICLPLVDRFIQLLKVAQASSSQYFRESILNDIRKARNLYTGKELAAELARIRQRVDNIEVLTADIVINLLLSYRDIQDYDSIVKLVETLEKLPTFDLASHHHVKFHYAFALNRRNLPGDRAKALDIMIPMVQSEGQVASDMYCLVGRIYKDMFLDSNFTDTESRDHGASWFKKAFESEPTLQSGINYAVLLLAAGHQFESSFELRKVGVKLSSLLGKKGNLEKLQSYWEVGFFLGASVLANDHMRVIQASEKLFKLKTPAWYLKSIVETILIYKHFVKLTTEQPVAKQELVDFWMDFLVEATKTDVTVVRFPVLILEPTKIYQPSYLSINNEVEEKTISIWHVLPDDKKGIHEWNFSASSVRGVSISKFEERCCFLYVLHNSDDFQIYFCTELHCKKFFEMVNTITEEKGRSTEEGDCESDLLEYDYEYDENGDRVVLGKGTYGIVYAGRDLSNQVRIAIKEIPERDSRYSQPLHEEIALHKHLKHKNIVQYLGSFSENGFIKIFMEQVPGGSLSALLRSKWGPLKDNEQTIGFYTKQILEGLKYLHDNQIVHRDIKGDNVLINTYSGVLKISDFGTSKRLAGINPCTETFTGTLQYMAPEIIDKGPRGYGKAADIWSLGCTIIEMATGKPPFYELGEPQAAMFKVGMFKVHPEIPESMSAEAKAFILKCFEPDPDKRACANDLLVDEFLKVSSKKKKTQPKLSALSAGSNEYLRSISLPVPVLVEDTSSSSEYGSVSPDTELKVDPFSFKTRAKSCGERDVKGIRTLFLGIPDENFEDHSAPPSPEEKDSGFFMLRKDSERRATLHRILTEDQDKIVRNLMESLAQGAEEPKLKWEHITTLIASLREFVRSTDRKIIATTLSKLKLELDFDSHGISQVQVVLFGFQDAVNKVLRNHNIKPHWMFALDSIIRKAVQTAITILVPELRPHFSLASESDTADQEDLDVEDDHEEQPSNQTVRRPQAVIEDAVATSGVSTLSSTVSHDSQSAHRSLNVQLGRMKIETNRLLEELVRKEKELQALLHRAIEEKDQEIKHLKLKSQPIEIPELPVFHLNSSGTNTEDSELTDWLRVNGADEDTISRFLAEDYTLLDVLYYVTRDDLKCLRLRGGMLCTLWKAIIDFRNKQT
Assay: ASK1 enzymatic inhibition in vitro by HTRF
Assay type: biochemical
Conditions: HTRF method, single concentration 100 nM
Text: In this detection, homogeneous time resolved fluorescence (HTRF) was used to evaluate the inhibitory level of the compound on the enzyme activity of recombinant human ASK1 in an in vitro reaction system.
The basic principle of the detection of enzymatic activity in vitro: a specific substrate labeled with biotin at the end is phosphorylated under the action of a kinase, and the reaction product is mixed with the EU3+-Cryptate-labeled antibody that recognizes the phosphorylation site and XL665-labeled streptavidin. When the two fluorescent molecules are bound to the substrate at the same time, Eu will produce […] fluorescence under the stimulation of external excitation light (320 nm), and meanwhile, XL665 will be excited by energy transfer to produce 665 nm fluorescence. The phosphorylation of the substrate is evaluated by comparing the changes of fluorescence at two wavelengths (620 nm and 665 nm). […] The basic detection principle is known in the prior art (Cisbio, Nature Method 2006, June 23; DOI:10.1038/NMETH883).
Human recombinant ASK1 (MAP3K5) kinase, 2× kinase reaction buffer, and ATP (10 mM) were purchased from Invitrogen (Cat. No.: PR7349B), and HTRF detection kit, HTRF KinEASE STK discovery kit, was purchased from Cisbio (Cat. No.: 62ST0PEB).
The experimental process was carried out in accordance with the procedures required by the detection reagent manual (https://www.cisbio.com/sites/default/files/ressources/cisbio_ddpi_62ST0PEB.pdf). The details are as follows:
(1) Experimental preparation: the kinase reaction buffer (working solution) is prepared as required and used to dilute the test compound into different concentration gradients (the maximum concentration of the compound is 4 μM).
(2) 10 μL of the enzymatic reaction system (including 2.5 μL of test compound, 5 μL of kinase reaction buffer and 2.5 μL of ATP solution (provided in the kit)) is mixed well and reacted at room temperature for 1 h. The enzymatic reaction is carried out in a 96-well microplate.
(3) EU3+-Cryptate-labeled antibody and XL665-labeled streptavidin are diluted with reaction termination buffer in an appropriate ratio, and 5 μL of each of two diluted detection solutions is added to each reaction well and reacted at room temperature for 2 h.
(4) The reaction is set up with a control reaction at the same time, including a positive control without test compound and a negative control without ASK1 kinase. All detections are carried out in duplicate.
(5) After the reaction, a fluorescence detector (TecanSPARK 10M) is used to detect the fluorescence signal of each well, wherein, the excitation wavelength is 320 nm, and the detected emission wavelengths are 620 nm and 665 nm, respectively.
(6) The 665/620 ratio of each well is calculated respectively, and the 665/620 ratio of the negative control well is subtracted from that of the positive control well to get the basic level of phosphorylation of the substrate. The formula for calculating the enzymatic inhibition rate of the test compound: inhibition rate (%)=1-(ratio of detection wells-ratio of negative wells)/basic level of phosphorylation of the substrate. The phosphorylation inhibition rates are calculated for the test compounds with different concentration gradients, and then the 50% enzymatic inhibiting concentration (IC50) is calculated by using the IC50 calculator. The summary data of the representative compounds of the present invention are as follows (see Table 2).

Inhibition Rate % [%] | SMILES
21 | Cc1cc(F)c(C(=O)Nc2cccc(-c3nncn3C(C)C)n2)cc1NC(=O)C1(F)CC1 [Compound I-16, 2-fluoro-N-(6-(4-isopropyl-4H-1,2,4-triazol-3-yl)pyridin-2-yl)-4-methyl-5-(1-(fluoro)cyclopropyl-1-formamido)benzamide]
18 | Cc1cc(F)c(C(=O)Nc2cccc(-c3nncn3C(C)C)n2)cc1NC(=O)C1CC1c1ccc(F)cc1 (stereo not drawn) [Compound I-13, 2-fluoro-5-(2-(4-fluorophenyl)cyclopropyl-1-formamido)-N-(6-(4-isopropyl-4H-1,2,4-triazol-3-yl)pyridin-2-yl)-4-methylbenzamide]
13 | COC[C@@H](C)n1cnnc1-c1cccc(NC(=O)c2cc(NC(=O)C3CC3)c(C)cc2F)n1 [Compound I-6]
44 | C[C@H](n1cnnc1-c1cccc(NC(=O)c2cc(NC(=O)C3CC3)ccn2)n1)C(F)(F)F [Compound I-10, (S)-4-(cyclopropylformamido)-N-(6-(4-(1,1,1-trifluoropropyl-2-yl)-4H-1,2,4-triazol-3-yl)pyridin-2-yl)pyridin-2-formamide]
52 | Cc1cc(F)c(C(=O)Nc2cccc(-c3nncn3[C@@H](C)C(F)(F)F)n2)cc1NC(=O)C1CCCC1 [Compound I-19, (S)-5-(cyclopentylformamido)-2-fluoro-4-methyl-N-(6-(4-(1,1,1-trifluoropropyl-2-yl)-4H-1,2,4-triazol-3-yl)pyridin-2-yl)benzamide]
27 | C[C@H](n1cnnc1-c1cccc(NC(=O)c2cc(NC(=O)C3CC3)c(F)cn2)n1)C(F)(F)F [Compound I-11, (S)-4-(cyclopropylformamido)-5-fluoro-N-(6-(4-(1,1,1-trifluoropropyl-2-yl)-4H-1,2,4-triazol-3-yl)pyridin-2-yl)pyridin-2-formamide]
16 | Cc1cc(F)c(C(=O)Nc2cccc(-c3nncn3[C@@H](C)C(F)(F)F)n2)cc1NC(=O)C1CCCCCC1 [Compound I-20, (S)-5-(cycloheptylformamido)-2-fluoro-4-methyl-N-(6-(4-(1,1,1-trifluoropropyl-2-yl)-4H-1,2,4-triazol-3-yl)pyridin-2-yl)benzamide]
15 | Cc1cc(F)c(C(=O)Nc2cccc(-c3nncn3C(C)C)n2)cc1NC(=O)[C@H]1C[C@H]1F [Compound I-17, 2-fluoro-5-((1R,2R)-2-fluorocyclopropyl-1-formamido)-N-(6-(4-isopropyl-4H-1,2,4-triazol-3-yl)pyridin-2-yl)-4-methylbenzamide]
34 | Cc1cc(F)c(C(=O)Nc2cccc(-c3nncn3C(C)C)n2)cc1NC(=O)[C@H]1C[C@@H]1F [Compound I-18, 2-fluoro-5-((1R,2S)-2-fluorocyclopropyl-1-formamido)-N-(6-(4-isopropyl-4H-1,2,4-triazol-3-yl)pyridin-2-yl)-4-methylbenzamide]
33 | C[C@H](n1cnnc1-c1cccc(NC(=O)c2cc(NC(=O)C3CC3)c(Cl)cc2F)n1)C(F)(F)F [Compound I-9, (S)-4-chloro-5-(cyclopropylformamido)-2-fluoro-N-(6-(4-(1,1,1-trifluoropropyl-2-yl)-4H-1,2,4-triazol-3-yl)pyridin-2-yl)benzamide]
51 | Cc1cc(F)c(C(=O)Nc2cccc(-c3nncn3[C@@H](C)C(F)(F)F)n2)cc1NC(=O)C1CC1 [Compound I-3, (5)-5-(cyclopropylformamido)-2-fluoro-4-methyl-N-(6-(4-(1,1,1-trifluoropropyl-2-yl)-4H-1,2,4-triazol-3-yl)pyridin-2-yl)benzamide]

SMILES | Inhibition Rate % [%]
Cc1cc(F)c(C(=O)Nc2csc(-c3nncn3[C@@H](C)C(F)(F)F)n2)cc1NC(=O)C1CC1 [Compound I-8] | 24

Same assay, conditions: HTRF method, single concentration 100 nM; read-out: Inhibition Rate %

inhibition at 0.1 µM [%] | SMILES
54 | Cc1cc(F)c(C(=O)Nc2cccc(-c3nncn3C(C)C)n2)cc1NC(=O)C1CC1 [Compound I-1, 5-(cyclopropylformamido)-2-fluoro-4-methyl-N-(6-(4-isopropyl-4H-1,2,4-triazol-3-yl)pyridin-2-yl)benzamide]
32 | Cc1cc(F)c(C(=O)Nc2cccc(-c3nncn3CC(F)(F)F)n2)cc1NC(=O)C1CC1 [Compound I-4, 5-(cyclopropylformamido)-2-fluoro-4-methyl-N-(6-(4-(2,2,2-trifluoroethyl)-4H-1,2,4-triazol-3-yl)pyridin-2-yl)benzamide]
42 | Cc1cc(F)c(C(=O)Nc2cccc(-c3nncn3C(C)C)n2)cc1NC(=O)C1CCC1 [Compound I-14, 5-(cyclobutylformamido)-2-fluoro-N-(6-(4-isopropyl-4H-1,2,4-triazol-3-yl)pyridin-2-yl)-4-methylbenzamide]
